These results are taken from PMC5218480 (PLoS ONE, 2017).

The assay has as its system MV-4-11 cells. Nature of the assay: Gene expression microarray analysis (Affymetrix PrimeView) and GSEA. As to conditions: ProbeSet 11744854_x_at; LIST B. Set-up: RFU PODN (11730768_x_at) / Fold change /veh PODN (11730768_x_at) / RFU LINC00158 (11744669_a_at) / Fold change /veh LINC00158 (11744669_a_at) / RFU DUSP10 (11751237_a_at) / Fold change /veh DUSP10 (11751237_a_at) / RFU ID3 (11757404_x_at) / Fold change /veh ID3 (11757404_x_at) / RFU PLEKHG5 (11737974_s_at) / Fold change /veh PLEKHG5 (11737974_s_at) / RFU LRRC4B (11730491_at) / Fold change /veh LRRC4B (11730491_at) / RFU GIMAP4 (11747438_a_at) / Fold change /veh GIMAP4 (11747438_a_at) / RFU KRT8 (11758183_x_at) / Fold change /veh KRT8 (11758183_x_at) / RFU CNN1 (11734310_a_at) / Fold change /veh CNN1 (11734310_a_at) / RFU VPS37D (11726825_at) / Fold change /veh VPS37D (11726825_at) / RFU C10orf10 (11716522_x_at) / Fold change /veh C10orf10 (11716522_x_at) / RFU KIR2DL2 /// KIR2DL4 /// KIR2DL5A /// KIR2DL5B /// KIR2DS1 /// KIR2DS2 /// KIR2DS3 /// KIR2DS4 /// KIR3DL3 /// KIR3DL3 /// KIR3DS1 (11738374_at) / Fold change /veh KIR2DL2 /// KIR2DL4 /// KIR2DL5A /// KIR2DL5B /// KIR2DS1 /// KIR2DS2 /// KIR2DS3 /// KIR2DS4 /// KIR3DL3 /// KIR3DL3 /// KIR3DS1 (11738374_at) / RFU C1QL1 (11718748_at) / Fold change /veh C1QL1 (11718748_at) / RFU TMPRSS4 (11747572_a_at) / Fold change /veh TMPRSS4 (11747572_a_at) / RFU HAMP (11756126_x_at) / Fold change /veh HAMP (11756126_x_at) / RFU RNFT2 (11725882_a_at) / Fold change /veh RNFT2 (11725882_a_at) / RFU NR4A2 (11747474_a_at) / Fold change /veh NR4A2 (11747474_a_at) / RFU ABCC12 (11746883_a_at) / Fold change /veh ABCC12 (11746883_a_at) / RFU TMEM136 (11760407_x_at) / Fold change /veh TMEM136 (11760407_x_at) / RFU CLDN22 /// WWC2 (11732394_at) / Fold change /veh CLDN22 /// WWC2 (11732394_at) / RFU HLA-DPB1 (11760878_x_at) / Fold change /veh HLA-DPB1 (11760878_x_at) / RFU SPINT1 (11716480_a_at) / Fold change /veh SPINT1 (11716480_a_at) / RFU GAP43 (11754022_s_at) / Fold change /veh GAP43 (11754022_s_at) / RFU A4GNT (11735810_at) / Fold change /veh A4GNT (11735810_at) / RFU PRB3 (11715151_x_at) / Fold change /veh PRB3 (11715151_x_at) / RFU TUBB4B (11761932_at) / Fold change /veh TUBB4B (11761932_at) / RFU CAPN14 (11732068_a_at) / Fold change /veh CAPN14 (11732068_a_at) / RFU TMCC2 (11721928_a_at) / Fold change /veh TMCC2 (11721928_a_at) / RFU IRGQ (11745062_a_at) / Fold change /veh IRGQ (11745062_a_at) / RFU FAM174B (11720279_a_at) / Fold change /veh FAM174B (11720279_a_at) / RFU TMPRSS4 (11748680_a_at) / Fold change /veh TMPRSS4 (11748680_a_at) / RFU FAM212B (11763350_a_at) / Fold change /veh FAM212B (11763350_a_at) / RFU PLEKHG5 (11743358_a_at) / Fold change /veh PLEKHG5 (11743358_a_at) / RFU ZSCAN30 (11745921_a_at) / Fold change /veh ZSCAN30 (11745921_a_at) / RFU CMKLR1 (11741424_a_at) / Fold change /veh CMKLR1 (11741424_a_at) / RFU LOC101060620 /// MAPK8IP1 (11723275_at) / Fold change /veh LOC101060620 /// MAPK8IP1 (11723275_at) / RFU SPTSSB (11747773_x_at) / Fold change /veh SPTSSB (11747773_x_at) / RFU PRSS12 (11739890_at) / Fold change /veh PRSS12 (11739890_at) / RFU BIN1 (11741810_x_at) / Fold change /veh BIN1 (11741810_x_at) / RFU WNT11 (11732464_a_at) / Fold change /veh WNT11 (11732464_a_at) / RFU C10orf10 (11716521_a_at) / Fold change /veh C10orf10 (11716521_a_at) / RFU C5orf56 (11738089_at) / Fold change /veh C5orf56 (11738089_at) / RFU CYB561 (11721691_x_at) / Fold change /veh CYB561 (11721691_x_at) / RFU ANKRD19P (11752326_a_at) / Fold change /veh ANKRD19P (11752326_a_at) / RFU OR2T12 /// OR2T33 /// OR2T8 (11738714_s_at) / Fold change /veh OR2T12 /// OR2T33 /// OR2T8 (11738714_s_at) / RFU VCAN (11748164_a_at) / Fold change /veh VCAN (11748164_a_at) / RFU JSRP1 (11732532_at) / Fold change /veh JSRP1 (11732532_at) / RFU KRTAP10-11 (11738290_x_at) / Fold change /veh KRTAP10-11 (11738290_x_at) / RFU MYO3A (11730013_a_at) / Fold change /veh MYO3A (11730013_a_at) / RFU EBF3 (11725865_a_at) / Fold change /veh EBF3 (11725865_a_at) / RFU CAMK2N1 (11719241_x_at) / Fold change /veh CAMK2N1 (11719241_x_at) / RFU C5orf56 (11738088_a_at) / Fold change /veh C5orf56 (11738088_a_at) / RFU OLFML3 (11715873_a_at) / Fold change /veh OLFML3 (11715873_a_at) / RFU LOC100653217 /// NTM (11731650_a_at) / Fold change /veh LOC100653217 /// NTM (11731650_a_at) / RFU MAPK11 (11762145_a_at) / Fold change /veh MAPK11 (11762145_a_at) / RFU FIZ1 (11724087_x_at) / Fold change /veh FIZ1 (11724087_x_at) / RFU OASL (11726364_x_at) / Fold change /veh OASL (11726364_x_at) / RFU SOX15 (11748057_x_at) / Fold change /veh SOX15 (11748057_x_at) / RFU CD79A (11719716_a_at) / Fold change /veh CD79A (11719716_a_at) / RFU HIST1H1D (11736915_at) / Fold change /veh HIST1H1D (11736915_at) / RFU CASKIN2 (11723855_a_at) / Fold change /veh CASKIN2 (11723855_a_at) / RFU LOC730098 (11760151_x_at) / Fold change /veh LOC730098 (11760151_x_at) / RFU OR4N2 (11742367_at) / Fold change /veh OR4N2 (11742367_at) / RFU PRRT2 (11749266_a_at) / Fold change /veh PRRT2 (11749266_a_at) / RFU SNX32 (11753110_a_at) / Fold change /veh SNX32 (11753110_a_at) / RFU CDHR5 (11726645_a_at) / Fold change /veh CDHR5 (11726645_a_at) / RFU RCAN1 (11760418_a_at) / Fold change /veh RCAN1 (11760418_a_at) / RFU FAM167A (11723789_a_at) / Fold change /veh FAM167A (11723789_a_at) / RFU FAM26E (11764081_at) / Fold change /veh FAM26E (11764081_at) / RFU ISYNA1 (11749810_s_at) / Fold change /veh ISYNA1 (11749810_s_at) / RFU ACY1 (11761880_at) / Fold change /veh ACY1 (11761880_at) / RFU 11764098_at / Fold change /veh 11764098_at / RFU SAMD14 (11745864_x_at) / Fold change /veh SAMD14 (11745864_x_at) / RFU NPB (11741838_a_at) / Fold change /veh NPB (11741838_a_at) / RFU TMPRSS6 (11731388_a_at) / Fold change /veh TMPRSS6 (11731388_a_at) / RFU KRTAP10-2 (11738614_at) / Fold change /veh KRTAP10-2 (11738614_at) / RFU ARHGAP8 /// PRR5-ARHGAP8 (11727945_x_at) / Fold change /veh ARHGAP8 /// PRR5-ARHGAP8 (11727945_x_at) / RFU KRTAP5-7 /// NADSYN1 (11734609_at) / Fold change /veh KRTAP5-7 /// NADSYN1 (11734609_at) / RFU RASL12 (11751679_a_at) / Fold change /veh RASL12 (11751679_a_at) / RFU CDKN2B (11736163_a_at) / Fold change /veh CDKN2B (11736163_a_at) / RFU PRF1 (11729649_at) / Fold change /veh PRF1 (11729649_at) / RFU, ZNF638 /// ZNF638-IT1 / Fold change vs veh, ZNF638 /// ZNF638-IT1 / RFU, PANK3 / Fold change vs veh, PANK3 / RFU, SH3YL1 / Fold change vs veh, SH3YL1 / RFU, ZEB2 / Fold change vs veh, ZEB2 / RFU, NRIP1 / Fold change vs veh, NRIP1 / RFU, PTTG1IP / Fold change vs veh, PTTG1IP / RFU, CAPN2 / Fold change vs veh, CAPN2 / RFU, MED14 / Fold change vs veh, MED14 / RFU, SNORA58 / Fold change vs veh, SNORA58 / RFU, C1orf63 / Fold change vs veh, C1orf63 / RFU, LRRFIP1 / Fold change vs veh, LRRFIP1 / RFU, NDUFAF7 / Fold change vs veh, NDUFAF7 / RFU, SLC12A2 / Fold change vs veh, SLC12A2 / RFU, IBTK / Fold change vs veh, IBTK / RFU, ESF1 / Fold change vs veh, ESF1 / Fold change vs veh, TMEM50B / RFU, TAOK1 / Fold change vs veh, TAOK1 / RFU, ACBD3 / Fold change vs veh, ACBD3 / RFU, TMA16 / Fold change vs veh, TMA16 / RFU, RWDD3 / Fold change vs veh, RWDD3 / RFU, BCAT1 / Fold change vs veh, BCAT1 / RFU, EDEM3 / Fold change vs veh, EDEM3 / RFU, TMEM33 / Fold change vs veh, TMEM33 / RFU, WDR75 / Fold change vs veh, WDR75 / RFU, AHCTF1 / Fold change vs veh, AHCTF1 / RFU, TFRC / Fold change vs veh, TFRC / RFU, ZDHHC17 / Fold change vs veh, ZDHHC17 / RFU, NOM1 / Fold change vs veh, NOM1 / RFU, ARL8B / Fold change vs veh, ARL8B / RFU, ZBTB11 / Fold change vs veh, ZBTB11 / RFU, TAMM41 / Fold change vs veh, TAMM41 / RFU, KIAA1704 /// LOC100996395 / Fold change vs veh, KIAA1704 /// LOC100996395 / RFU, ING1 / Fold change vs veh, ING1 / RFU, TRMT61B / Fold change vs veh, TRMT61B / RFU, FUBP3 / Fold change vs veh, FUBP3 / RFU, TP53 / Fold change vs veh, TP53 / RFU, TNKS2 / Fold change vs veh, TNKS2 / RFU, ZFP14 / Fold change vs veh, ZFP14 / RFU, ACTR2 / Fold change vs veh, ACTR2 / RFU, PPP3R1 / Fold change vs veh, PPP3R1 / RFU, PIK3R1 / Fold change vs veh, PIK3R1 / RFU, HNRNPA1 / Fold change vs veh, HNRNPA1 / RFU, RNF170 / Fold change vs veh, RNF170 / RFU, ZNF28 / Fold change vs veh, ZNF28 / RFU, RNGTT / Fold change vs veh, RNGTT / RFU, OGT / Fold change vs veh, OGT / RFU, BRD1 / Fold change vs veh, BRD1 / RFU, MARS / Fold change vs veh, MARS / RFU, ZNF655 / Fold change vs veh, ZNF655 / RFU, FAHD1 / Fold change vs veh, FAHD1 / RFU, BDP1 / Fold change vs veh, BDP1 / RFU, LRRCC1 / Fold change vs veh, LRRCC1 / RFU, ARID1A / Fold change vs veh, ARID1A / RFU, ZNF146 / Fold change vs veh, ZNF146 / RFU, ZNF330 / Fold change vs veh, ZNF330 / RFU, GPN3 / Fold change vs veh, GPN3 / RFU, C9orf123 / Fold change vs veh, C9orf123 / RFU, N4BP2L2 / Fold change vs veh, N4BP2L2 / RFU, ARFIP1 / Fold change vs veh, ARFIP1 / RFU, FAM179B / Fold change vs veh, FAM179B / RFU, BCL10 / Fold change vs veh, BCL10 / RFU, UHRF1BP1L / Fold change vs veh, UHRF1BP1L / RFU, BET1 / Fold change vs veh, BET1 / RFU, CNOT2 / Fold change vs veh, CNOT2 / RFU, ZNF268 / Fold change vs veh, ZNF268 / Fold change vs veh, ZNF507 / RFU, DGCR2 / Fold change vs veh, DGCR2 / RFU, WDSUB1 / Fold change vs veh, WDSUB1 / Fold change vs veh, HSP90B1 /// MIR3652 / RFU, ADSS / Fold change vs veh, ADSS / RFU, GK / Fold change vs veh, GK / RFU, ZNF148 / Fold change vs veh, ZNF148 / RFU, TAF9 / Fold change vs veh, TAF9 / RFU, SLC1A5 / Fold change vs veh, SLC1A5 / RFU, SLMO2 / Fold change vs veh, SLMO2 / RFU, ABCC4 / Fold change vs veh, ABCC4 / RFU, LOC101060439 /// RAP1B / Fold change vs veh, LOC101060439 /// RAP1B / RFU, RFX7 / Fold change vs veh, RFX7 / RFU, GTPBP10 / Fold change vs veh, GTPBP10 / RFU, CNEP1R1 / Fold change vs veh, CNEP1R1 / RFU, BIVM-ERCC5 /// ERCC5 / Fold change vs veh, BIVM-ERCC5 /// ERCC5 / RFU, ILF3 / Fold change vs veh, ILF3 / RFU 11762660_at / Fold change /veh 11762660_at / RFU VCAN (11757783_s_at) / Fold change /veh VCAN (11757783_s_at) / RFU DDX43 (11728927_at) / Fold change /veh DDX43 (11728927_at) / RFU KRT8 (11758188_x_at) / Fold change /veh KRT8 (11758188_x_at) / RFU NKD1 (11759106_at) / Fold change /veh NKD1 (11759106_at) / RFU SRD5A1 (11742802_a_at) / Fold change /veh SRD5A1 (11742802_a_at) / RFU TPSAB1 /// TPSB2 (11721975_s_at) / Fold change /veh TPSAB1 /// TPSB2 (11721975_s_at) / RFU GSTM3 (11746129_a_at) / Fold change /veh GSTM3 (11746129_a_at) / RFU IL23R (11737362_x_at) / Fold change /veh IL23R (11737362_x_at) / RFU TMEM51 (11727254_a_at) / Fold change /veh TMEM51 (11727254_a_at) / RFU PIWIL2 (11732686_x_at) / Fold change /veh PIWIL2 (11732686_x_at) / RFU ORM1 (11744905_x_at) / Fold change /veh ORM1 (11744905_x_at) / RFU CCDC152 (11743942_at) / Fold change /veh CCDC152 (11743942_at) / RFU ECM1 (11717891_a_at) / Fold change /veh ECM1 (11717891_a_at) / RFU IL23R (11748794_a_at) / Fold change /veh IL23R (11748794_a_at) / RFU TNFAIP8L3 (11732012_x_at) / Fold change /veh TNFAIP8L3 (11732012_x_at) / RFU MBOAT4 (11741988_at) / Fold change /veh MBOAT4 (11741988_at) / RFU 11764193_at / Fold change /veh 11764193_at / RFU TMEM53 (11763286_at) / Fold change /veh TMEM53 (11763286_at) / RFU MAGEB2 (11727129_at) / Fold change /veh MAGEB2 (11727129_at) / RFU TMEM200A (11744735_a_at) / Fold change /veh TMEM200A (11744735_a_at) / RFU CCDC152 (11751479_a_at) / Fold change /veh CCDC152 (11751479_a_at) / RFU FAM211A (11726209_a_at) / Fold change /veh FAM211A (11726209_a_at) / RFU RGS16 (11746705_a_at) / Fold change /veh RGS16 (11746705_a_at) / RFU VCAN (11755009_s_at) / Fold change /veh VCAN (11755009_s_at) / RFU RHOB (11743442_s_at) / Fold change /veh RHOB (11743442_s_at) / RFU RGS16 (11720943_a_at) / Fold change /veh RGS16 (11720943_a_at) / RFU RGS16 (11720944_at) / Fold change /veh RGS16 (11720944_at) / RFU, VPS4B / Fold change vs veh, VPS4B / RFU, CREB1 / Fold change vs veh, CREB1 / RFU, DNAJC13 / Fold change vs veh, DNAJC13 / RFU, GNAQ / Fold change vs veh, GNAQ / RFU, CDK5R1 / Fold change vs veh, CDK5R1 / RFU, ZRANB3 / Fold change vs veh, ZRANB3 / RFU, CUL4A / Fold change vs veh, CUL4A / RFU, CCNY / Fold change vs veh, CCNY / RFU, UFL1 / Fold change vs veh, UFL1 / RFU, COG3 / Fold change vs veh, COG3 / RFU, DIAPH2 / Fold change vs veh, DIAPH2 / RFU, SKA2 / Fold change vs veh, SKA2 / RFU, AFF3 / Fold change vs veh, AFF3 / RFU, LMF1 / Fold change vs veh, LMF1 / RFU, IPO11 / Fold change vs veh, IPO11 / RFU, DFFB / Fold change vs veh, DFFB / RFU, FOXP1 / Fold change vs veh, FOXP1 / RFU, CARD8 / Fold change vs veh, CARD8 / RFU, STRN3 / Fold change vs veh, STRN3 / RFU, ADK / Fold change vs veh, ADK / RFU, RASSF2 / Fold change vs veh, RASSF2 / RFU, WIPF1 / Fold change vs veh, WIPF1 / RFU, LARP1B / Fold change vs veh, LARP1B / RFU, RASA1 / Fold change vs veh, RASA1 / RFU, RB1 / Fold change vs veh, RB1 / RFU, PPFIA1 / Fold change vs veh, PPFIA1 / RFU, MAT2A / Fold change vs veh, MAT2A / RFU, CCT5 / Fold change vs veh, CCT5 / RFU, WDR92 / Fold change vs veh, WDR92 / RFU, CUX1 / Fold change vs veh, CUX1 / RFU, TTC7A / Fold change vs veh, TTC7A / RFU, TMEM135 / Fold change vs veh, TMEM135 / RFU, DEPTOR / Fold change vs veh, DEPTOR / RFU, CPM / Fold change vs veh, CPM / RFU, DNAJB6 / Fold change vs veh, DNAJB6 / RFU, CACNA2D3 / Fold change vs veh, CACNA2D3 / RFU, DTX4 / Fold change vs veh, DTX4 / RFU, TFCP2 / Fold change vs veh, TFCP2 / RFU, GMCL1 /// GMCL1P1 / Fold change vs veh, GMCL1 /// GMCL1P1 / RFU, AEBP2 / Fold change vs veh, AEBP2 / RFU, SNHG1 /// SNORD22 /// SNORD25 /// SNORD26 /// SNORD27 /// SNORD28 /// SNORD29 /// SNORD31 / Fold change vs veh, SNHG1 /// SNORD22 /// SNORD25 /// SNORD26 /// SNORD27 /// SNORD28 /// SNORD29 /// SNORD31 / Fold change (Aza/veh), C12orf56 (ProbeSet 11735607_a_at) / Fold change (ACY-1035/veh), C12orf56 (ProbeSet 11735607_a_at) / Fold change (Aza/veh), FGFR1OP (ProbeSet 11751329_s_at) / Fold change (ACY-1035/veh), FGFR1OP (ProbeSet 11751329_s_at) / Fold change (Aza/veh), VPS36 (ProbeSet 11739960_a_at) / Fold change (ACY-1035/veh), VPS36 (ProbeSet 11739960_a_at) / RFU SYPL1 (11715823_x_at) / Fold change /veh SYPL1 (11715823_x_at) / RFU IGFBP7 (11715501_s_at) / Fold change /veh IGFBP7 (11715501_s_at) / RFU REEP3 (11722064_at) / Fold change /veh REEP3 (11722064_at) / RFU IGLL1 (11728026_x_at) / Fold change /veh IGLL1 (11728026_x_at): dose or concentration left out as unconfirmed. The class given is cell-based, human.

Turning to `Nc1ccc(-c2cccs2)cc1NC(=O)c1ccc2c(c1)cc(C1CC1)n2CCN1CCOCC1` [ACY-1035], the “Fold change vs veh, ZNF28” value was 0.85.
